From patent publication US9144569B2, “Methods of administering an aromatase inhibitor, prostaglandin and GnRH for regulating ovulation in cattle” (UNIVERSITY OF SASKATCHEWAN, priority 2010, dated 2015)

Key:
[1] = tested on: plasma FSH; assay: Example II: plasma FSH during 3-day letrozole regimen; type: in vivo, cattle; details: 3-day regimen
Protocol: Four days after follicular ablation, heifers were given 500 μg of cloprostenol (PGF, Estrumate, Schering-Plough Animal Health, Pointe-Claire, QC, Canada) intramuscularly (im) to induce regression of the CL and to synchronize ovulation. The experiment was performed in two replicates (n=20-27 per replicate) and each heifer was used only once. In replicate 1, heifers were assigned randomly at the time of ovulation (Day 0) to the following groups and given a 3-day regimen of letrozole from Days 1 to 3 (n=5), Days 3 to 5 (n=5), Days 5 to 7 (n=5), or no treatment (control group, n=5). In replicate 2, heifers were similarly assigned to groups and given letrozole from Days 1 to 3, (n=5), Days 3 to 5 (n=4), or Days 5 to 7 (n=4), but untreated control heifers were arranged in three sub-groups to serve as contemporaneous controls for each letrozole-group during intensive blood sampling periods (i.e., control Days 1 to 3, n=4; control Days 3 to 5, n=4; and control Days 5 to 7, n=5). For practical purposes, the total dose of letrozole (250 μg/kg) was calculated on the basis of an average weight of 350 kg for all heifers and administered intravenously in daily divided doses over 3 days (85 μg/kg per day). […]
Plasma FSH concentrations were determined in duplicate using a double-antibody radioimmunoassay using NIDDK-anti-oFSH-1 primary antibody and expressed as USDA bovine FSH-I1 units. […]

[2] = tested on: plasma LH; assay: Example I: plasma LH by double-antibody radioimmunoassay after single iv dose; type: in vivo, cattle; details: for plasma LH concentrations compared to saline-treated controls: doses combined
Protocol: Heifers in which a CL was detected during the initial examination were given […] cloprostenol (PGF, Estrumate™, Schering-Plough Animal Health, Pointe-Claire, QC, Canada) intramuscularly (im) to induce regression of the CL and to synchronize ovulation. Heifers were examined daily by transrectal ultrasonography to detect ovulation. Transvaginal ultrasound-guided follicular aspiration of follicles ≧5 mm was performed five to eight days after ovulation to synchronize wave emergence. Heifers were examined daily by transrectal ultrasonography to detect follicular wave emergence, which was expected 1 to 1.5 days after follicular ablation. Four days after follicular ablation (approximately 2.5 days after follicular wave emergence), and at the time follicular dominance becomes apparent, heifers were assigned randomly to the following treatment groups and given a single intravenous dose of 1) 500 μg/kg of letrozole (high dose group, n=9), 2) 250 μg/kg of letrozole (medium dose group, n=10), 3) 125 μg/kg of letrozole (low dose group, n=10), or 4) 20 ml of phosphate buffered saline (PBS control group, n=10). For practical purposes, the dose of letrozole was calculated based on an average weight of 400 kg for all heifers. The average oral dose used in women (2.5-5 mg per day for 5 days) was used to estimate the medium dose for cattle. The high and low doses were set as double and half the medium dose, respectively. The day of treatment was defined as Day 0. For intravenous injection, letrozole was prepared in 95% ethanol at a final concentration of 5 mg per ml, resulting in an injection volume of 10-40 ml. The experiment was performed in four replicates (n=2-3 per group per replicate) and each heifer was used only once.
Statistical analyses were done using the Statistical Analysis System software package (SAS Learning Edition 9.1, 2006; SAS Institute Inc., Cary, N.C., USA). Time-series hormone data, plasma letrozole concentration, and follicular diameter profiles were analyzed by repeated measures, using the PROC MIXED procedure. The main effects were treatment (high, medium and low dose, and control), time, and their interactions.

[3] = tested on: circulating estradiol; details: post-menopausal women [30]; cited from earlier work

SMILES: N#Cc1ccc(C(c2ccc(C#N)cc2)n2cncn2)cc1 [Letrozole, letrozole]
- plasma FSH levels compared with respective controls [1]: No differences
- plasma LH concentrations compared to saline-treated controls ([2]; 4-day period after single iv dose, P=0.01): higher
- plasma LH concentrations compared to saline-treated controls ([2]; first 12 hours following single iv dose, P=0.05): higher
- duration of elevated LH levels after treatment ([2]; single iv dose): at least 4 days
- time after letrozole at which endogenous LH began to rise ([2]; single iv dose): 2 h
- reduction in circulating estradiol concentrations [3]: 97-99%
